According to patent publication US20240366648A1, “NAD-AUGMENTATION THERAPY FOR PARKINSON'S DISEASE” (Vestlandets Innovasjonsselskap AS (VIS), priority 2021, published 2024):

Test system: patients with PD
Assay: MDS-UPDRS / Hoehn & Yahr clinical rating, phase I trial
Assay type: in vivo, human
Method: A single-center, double-blinded, randomized, placebo-controlled phase I trial of oral NR supplementation in newly diagnosed patients with PD was conducted. […] Due to the early onset, this patient underwent genetic investigation with whole-exome sequencing and SNP-chip based genome-wide copy number variation analysis, which excluded pathogenic mutations in PD-related genes, including PINK1 and PRKN. screening. Patient recruitment, inclusion, and follow-up was carried out by a GCP certified investigator. Sample size of 30 participants was chosen based on previously reported brain metabolic network analyses. Thirty PD patients were randomly assigned (Block size 6, allocation 1:1) to 500 mg NR, provided in the form of nicotinamide riboside chloride ([…]® from Chromadex), or placebo twice per day, 12 hours apart, using the electronic Case Report Form (Viedoc.com). The drug containers were sequentially marked by an independent third party. The […]®) and placebo were provided by ChromaDex, USA. Each NR capsule contained 250 mg of NR. Placebo capsules contained microcrystalline cellulose. The vials and capsules containing NR and placebo were identical in shape, colour, and smell. Study drug compliance was calculated from counting returned number of study capsules and self-reporting. Participants, examining physicians, medical- and research personnel were blinded for the duration of the trial. Sample size was determined by comparing previous literature with respect to the primary objective. At screening for trial entry, candidates underwent physical and neurological examination, brain MRI, and […]. Eligible patients who entered the trial were assessed at baseline (visit 1, V1) and after four weeks of exposure to either NR or placebo (visit 2, V2). At both visits, patients underwent physical and neurological examination, including assessment by the Movement Disorder Society Unified Parkinson's Disease Rating Scale section I-IV (MDS-UPDRS), and biological sampling. MR-PET was performed within one week prior to visit 1, and at visit 2. All participants remained naïve for antiparkinson drugs for the duration of the trial. All clinical assessments were performed by a blinded movement disorders expert. Each patient was examined by the same neurologist at both visits. Methodological details on each procedure are provided below. Safety was monitored through routine clinical blood tests and registration of adverse events. Adverse events (AE) were recorded and scored by the investigative physician. […] The AE relation to the study drug was scored as (1) unrelated, (2) unlikely, (3) possible, (4) probable or (5) definitely. The between visit change ([visit 2]-[visit 1]) in MDS-UPDRS (total of subsections I-III; and individual subsections I, II and III) was compared between the NR and placebo groups using independent Student's t-test. In addition, the between visit change in MDS-UPDRS (total and subsections) within the NR, MRS-responder, and placebo groups was assessed by paired Student's t-test. For the 31P-MRS analyses, the change in measured metabolites between visit 1 and visit 2 was assessed in the placebo- and NR group using paired Student's t-test. In addition, the between-visit change in NAD/ATP-α was compared between the NR and placebo group by independent Student's t-test. For PET analyses, changes in network scores with treatment were evaluated for each group separately using paired Student's t-tests or permutation tests. Relationships between network values, NAD levels and MDS-UPDRS motor ratings or between treatment-related changes in these variables were evaluated using Pearson's product-moment correlations; Spearman rank-order correlation coefficients were computed for non-normal distributions of the variables. These statistical tests were performed using SPSS (SPSS Inc., Chicago, IL); results were considered significant for p≤0.05 (two-tailed). […]

[1] = Visit 1 (baseline), MRS Responders N=10
[2] = Visit 1 (baseline), NR group N=15
[3] = Visit 2 (after four weeks), MRS Responders N=10
[4] = Visit 2 (after four weeks), NR group N=15

NC(=O)c1ccc[n+]([C@@H]2O[C@H](CO)[C@@H](O)[C@H]2O)c1 [NR, nicotinamide riboside]
mean decrease in MDS-UPDRS between visits (MRS-responder subgroup (n=10), paired t-test p=0.071): 1.9±2.78 | clinical change as measured by the UPDRS scale (NR 1000 mg daily, one month): mild clinical improvement | motor symptoms in PD patients who received NR (NR 1000 mg daily, one month): no worsening of motor symptoms | Hoehn & Yahr Stage, mean [1]: 1.7 | MDS-UPDRS I, mean score [1]: 6.2 | MDS-UPDRS II, mean score [1]: 6.4 | MDS-UPDRS III, mean score [1]: 29.6 | Total score MDS-UPDRS (I-III), mean [1]: 42.2 | Hoehn & Yahr Stage, mean [2]: 1.8 | MDS-UPDRS I, mean score [2]: 6.3 | MDS-UPDRS II, mean score [2]: 7.9 | MDS-UPDRS III, mean score [2]: 31.1 | Total score MDS-UPDRS (I-III), mean [2]: 45.2 | Hoehn & Yahr Stage, mean [3]: 1.8 | MDS-UPDRS I, mean score [3]: 5.3 | MDS-UPDRS II, mean score [3]: 6.4 | MDS-UPDRS III, mean score [3]: 28.7 | Total score MDS-UPDRS (I-III), mean [3]: 40.4 | Hoehn & Yahr Stage, mean [4]: 1.9 | MDS-UPDRS I, mean score [4]: 5.4 | MDS-UPDRS II, mean score [4]: 8.3 | MDS-UPDRS III, mean score [4]: 30.5 | Total score MDS-UPDRS (I-III), mean [4]: 44.1 | mean decrease in MDS-UPDRS between visits (nine individuals with >10% increase in cerebral NAD, paired t-test p=0.017): 2.33±2.35
